Values joined by “and” are separate entries in the source; they are usually repeats but may differ in a detail not shown here. Equal values may be shown once.
How the values were obtained:
[1] = molecular target: T1, immunostimulant induced argininosuccinate synthetase (Rattus norvegicus, UniProt P09034); test: Argininosuccinate synthetase assay in crude homogenate of immunostimulant treated rat aortic smooth muscle cells (Example VI); type: biochemical; details: test compound 1 mM; for counts per minute in the argininosuccinate synthetase assay: duplicate runs, control 534.00 and 443.00, background 217, 237 and 252 not subtracted
T1 sequence (P09034 1-412): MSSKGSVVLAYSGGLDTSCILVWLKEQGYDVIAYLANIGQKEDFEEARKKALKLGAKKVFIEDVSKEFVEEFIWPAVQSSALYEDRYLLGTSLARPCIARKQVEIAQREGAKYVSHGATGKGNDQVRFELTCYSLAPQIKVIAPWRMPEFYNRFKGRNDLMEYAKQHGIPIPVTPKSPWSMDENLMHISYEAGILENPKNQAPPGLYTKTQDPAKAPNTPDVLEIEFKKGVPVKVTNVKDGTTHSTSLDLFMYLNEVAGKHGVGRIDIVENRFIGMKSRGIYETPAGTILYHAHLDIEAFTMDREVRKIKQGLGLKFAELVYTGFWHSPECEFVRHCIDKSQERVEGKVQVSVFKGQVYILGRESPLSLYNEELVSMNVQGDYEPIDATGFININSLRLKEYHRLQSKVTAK
Procedure: Argininosuccinate synthetase activity was assayed based on the conversion of [^14 C]aspartate to [^14 C]argininosuccinate, as described in O'Brien, W. E., Biochemistry 18, 5353-5356, 1979, with the exception that aspartate was present at a concentration of 30 μm (0.021 μCi/nmol). Reaction mixtures also contained L-citrulline (5 mM), Tris (10 mM, pH 7.5), ATP 0.1mM), phosphoenolpyruvate (1.5 mM), pyruvate kinase (4.5 units), myokinase (4 units), and pyrophosphatase (0.2 unit) in a total volume of 0.3 ml. Reactions were allowed to proceed for 90 minutes at 37° C before termination and quantification of the [^14 C]argininosuccinate formed, using ion exchange chromatography on Dowex 1-X8 (200-400 mesh, Bio-Rad).
Immunostimulant treated rat aortic smooth muscle cells prepared as in Example I were homogenized in 10 volumes (10 ml/gm rat aortic smooth muscle cells) of 100 mM tris buffer containing 1 mM phenylmethylsulfonyl fluoride ([…]) and 1 mM dithiothreitol (to maintain enzyme in reduced form).
For the control, the crude homogenate was assayed for argininosuccinate synthetase by the procedure as described in Example I except that L-citrulline was present at a concentration of 150 μM instead of 5 mM. In duplicate runs, counts per minute were 534.00 (8.65% error) and 443.00 (9.50% error) counts per minute.
The background count to be subtracted from the above count results was obtained by omitting citrulline from the argininosuccinate synthetase assay and in three runs was determined to be 217, 237 and 252 counts per minute.

[2] = test system: rat aortic smooth muscle cells; test: Nitrite production (indicator of cellular NO synthesis) by LPS/interferon-gamma induced rat aortic smooth muscle cells (Examples IV, V); type: cell-based; details: L-citrulline varied at fixed L-arginine (0 or low), added with immunostimulant; 24 hours; FIG. 5
Procedure: Rat aortic smooth muscle cells were grown as described in Example I and were continuously treated with 30 μg/ml of bacterial lipopolysaccharide in combination with 50 ng/ml of interferongamma. Concentrations of mithramycin as indicated in FIG. 4 were added either simultaneously with immunostimulant (filled in circles in FIG. 4) or 4 hours later (open circles in FIG. 4).
Nitrite was used as an indicator of cellular NO synthesis and assay was carried out as described in Gross, S. S., et al, J. Biol. Chem. 267, 25722-25729 (1992). In the assay, cells were treated with serum- and arginine-free RPMI 1640 medium containing the desired test agents for 24 hours. The accumulation of nitrite in the cell culture medium was quantified colorimetrically after adding 100 μl of Griess reagent (1% sulfanilamide and 0.1% naphthalene diamine in 5% o-phosphoric acid) to an equal volume of sample.
Rat aortic smooth muscle cells were grown as described in Example I and were treated with 30 μg/ml of bacterial lipopolysaccharide in combination with 50 ng/ml of interferon-gamma. Concentrations of L-citrulline and L-arginine as indicated in FIG. 5 were added simultaneously with immunostimulant. Nitrite was used as an indicator of cellular NO synthesis and assay therefor was carried out as described in Example IV.

[3] = test system: patient with Gram negative septicemia; test: Blood pressure in septicemia patient given dopamine plus test agent (Examples IX, XV); type: in vivo, human; details: dopamine 10 μg/kg/min plus L-thiocitrulline 20 mg/kg bolus then 10 mg/kg/hr
Procedure: A patient with Gram negative septicemia and blood pressure of 80/55 mm Hg is administered dopamine at 10 μg/kg/min to acutely increase blood pressure and concurrently is administered mithramycin (25 μg/kg) intravenously in 50 ml saline over 3-6 hours.
A patient with Gram negative septicemia and blood pressure of 80/55 mm Hg is administered dopamine at 10 μg/kg/min to acutely increase blood pressure and concurrently is intravenously administered an initial bolus dose of L-thiocitrulline of 20 mg/kg and thereafter L-thiocitrulline as a sustained infusion at a dose of 10 mg/kg/hr.

[4] = test system: Sprague-Dawley rats; test: Air pouch inflammatory model with croton oil (Examples XII, XVIII); type: in vivo, rat; details: L-thiocitrulline 20 mg/kg intraperitoneally, repeated at 6-24 hour intervals; end of 5 days; versus rats without drug
[5] = test system: human treated with interleukin-2; test: Hypotension during interleukin-2 treatment for renal cell cancer (Examples VIII, XIV); type: in vivo; details: interleukin-2 1×10^6, 5 days; L-thiocitrulline 10 mg/kg/day from start of infusion
Procedure: A human is treated for renal cell cancer with interleukin-2 (1×10^6 units) for 5 days. By the fifth day, the patient's blood pressure falls to 80/55 mm Hg and the patient encounters nausea and extreme discomfort. Three weeks later, the patient returns for a second course of interleukin-2 treatment but is pretreated (before commencing interleukin-2 infusion) with mithramycin (25 μg/kg) and is treated at 24 hour intervals thereafter with 25 μg/kg of mithramycin. The mithramycin is administered intravenously in 50 ml saline over a 3 to 6 hour interval.
A human is treated for renal cell cancer with interleukin-2 (1×10^6) for 5 days. Simultaneously with commencing interleukin-2 infusion, L-thiocitrulline (10 mg/kg/day) is administered.

[6] = test system: patient with Gram negative septicemia; test: Blood pressure in septicemia patient given N^G -methyl-L-arginine plus test agent (Examples X, XVI); type: in vivo, human; details: N^G -methyl-L-arginine 20 mg/kg bolus then 10 mg/kg/hr, plus N^ω -methyl-L-citrulline 40 mg/kg intravenously over 3-6 hours
Procedure: A patient with Gram negative septicemia and blood pressure of 80/55 mm Hg is administered N^G -methyl-L-arginine in a bolus dose of 20 mg/kg intravenously in saline and thereafter is given a sustained infusion of N^G -methyl-L-arginine at a dosage of 10 mg/kg/hr. Mithramycin (25 μg/kg) is given intravenously in 50 ml saline over 3-6 hours starting at the time of the bolus dose of N^G -methyl-L-arginine. […] The patient is released after 2 days.
A patient with a Gram negative septicemia and blood pressure of 80/55 mm Hg is administered N^G -methyl-L-arginine in a bolus dose of 20 mg/kg intravenously in saline and thereafter is given a sustained infusion of N^G -methyl-L-arginine at a dose of 10 mg/kg/hr. N^ω -Methyl-L-citrulline (40 mg/kg) is given intravenously in 50 ml saline over 3-6 hours starting at the time of the bolus dose of N^G -methyl-L-arginine.

SMILES	inhibition of immunostimulant induced argininosuccinate synthetase ([1]; L-citrulline 150 μM)	counts per minute in the argininosuccinate synthetase assay ([1]; L-citrulline 150 μM)	inhibition of immunostimulant induced argininosuccinate synthetase ([1]; stated in present tense)	further results
N=C(N)NOCC[C@H](N)C(=O)O [L-canavanine]	are inhibitors of immunostimulant induced argininosuccinate synthetase	355.00 (10.61% error) counts per minute and 393.00 (10.09% error) counts per minute	–	–
NC(=O)NCCC[C@H](N)C(=O)O [L-citrulline]	–	–	–	nitrite concentration in cell culture medium [2]: maximal nitrite is obtained
CCC[C@H](N)C(=O)O [L-norvaline]	–	–	inhibition of immunostimulant induced argininosuccinate synthetase is shown	–
NC(=S)NCCC[C@H](N)C(=O)O [L-thiocitrulline]	are inhibitors of immunostimulant induced argininosuccinate synthetase	272.00 (12.13% error) counts per minute and 227.00 (13.27% error) counts per minute	–	blood pressure [3]: becomes normal within minutes and this state is sustained; inflammation [4]: less inflammation; nitrite in the fluid exudate of the lesion [4]: significantly less nitrite; development of hypotension [5]: Hypotension does not develop
CNC(=N)NCCC[C@H](N)C(=O)O [N^ω -methyl-L-arginine]	–	591.00 (8.23% error) counts per minute and 520.00 (8.77% error) counts per minute	–	–
CNC(=O)NCCC[C@H](N)C(=O)O [N^ω -methyl-L-citrulline]	–	–	more potent than obtained with L-canavanine but less potent than obtained with L-thiocitrulline	blood pressure [6]: becomes mildly hypotensive or normal within minutes

Reference: patent US5545625A, “Preventing conversion of citrulline to argininosuccinate to limit pathological nitric oxide overproduction” (The Medical College of Wisconsin Research Foundation, Inc., priority 1994, dated 1996)
